Measured values as given in patent publication US9580411B2, “Substituted sulfonamide compounds” (Hoffmann-La Roche Inc., priority 2012, dated 2017).

What follows are molecules tested against hTRPA1 (Homo sapiens (Human), UniProt O75762) (assay: Dose response calcium flux assay (FLIPR), ChanTest hTRPA1-CHO stably transfected cell line). Settings: CHO-K1 Tet-On human TRPA1 cells, cinnamaldehyde agonist (final 100 uM).
Format: cell-based
Description: IC50 Determinations of Exemplified Compounds Dose Response Assay: Chan Test hTRPA1-CHO Stably Transfected Cell Line
CHO-K1 Tet-On_HOMSA_TRPA1_Clone_20
Chinese Hamster Ovary cells, inducible expression
• Ham's F-12 with 10% tetracycline-free FBS • 1× penicillin-streptomycin • 1× glutamax • 0.01 mg/ml Blasticidin • 0.40 mg/ml Zeocin • The cell line doubling rate was ˜15 hours. […] Experiments were run at 24 hours post induction. Plating Conditions CHOK1/TRPA1 Cells: • Harvested cells with 0.025% trypsin/EDTA. • Resuspended cells in growth media without selection antibiotics. • Measured cell density and diluted to 2.4×10^5 cells/ml in media containing 1 ug/ml Doxycycline Plate 25 ul/well into 384 well black/clear tissue culture-treated plates. • Incubated overnight at 37° C. Calcium Flux Assay: Day of Assay: Reagents: • Replacement Buffer: Hank's Balanced Salt Solution, 20 mM HEPES along with 0.005% BSA and 2× Probenecid • Dye Loading Buffer: Cal-3 NW Calcium dye was prepared by dissolving the contents of one vial with […] Hank's Balanced Salt Solution containing 20 mM HEPES. • Control compounds for CHOK1/TRPA1 cells: AP-18, stock 10 mM, prepare 3.5× compound dilution in a Compound Buffer (HBSS/20 mM HEPES/0.005% BSA)—final concentration 10 uM. • Preparation of Cinnamaldehyde (agonist addition): FW=132.16 • Specific gravity=1.046 gm/cc • 1.32 gm/1.046 gm/cc=1.26 ml of stock • Add 1.74 ml DMSO=3.3 M stock • Working solution 4.5× (final 100 uM in Compound Buffer: HBSS/20 mM HEPES/0.005% BSA) • Compounds dilutions were prepared from 5 or 10 mM stock (100% DMSO): • Adjustments of volumes and concentrations were made at time of titration to reflect desired final assay concentrations. • Compounds were tested at either 20 μM three folds dilution 11 steps out or 30 μM two folds dilution 11 steps out. • 3 μl of diluted compound were transferred into Weidmann 384-well plate in duplicates side-by-side. • Compound plates were resuspended with 100 ul of HBSS/20 mM HEPES/0.005% BSA buffer (Compound Buffer): • column 1A-H: buffer/DMSO (bk) • column 2A-H: AP-18 (control antagonist for CHOK1 TRPA1 cells) • column 1I-P: ATP (control for CHOK1 teton cells) • column 2 I-P: 2APB (control antagonist for CHOK1/TRPM8 cells). Growth media was removed from the cell plates (20 ul) and 20 ul of the Replacement Buffer was added followed by addition of 25 ul of diluted dye. All three steps were performed using a Plate Washer BioTek 407. The plates were then incubated for 30′ at RT.
After incubation, both the cell and compound plates were brought to the FLIPR and 20 ul of the diluted compounds/antagonist/bk were transferred to the cell plates by the FLIPR. Plates were then incubated for 30′ at room temperature. After 30′ incubation, plates were returned to the FLIPR and 20 ul of 4.5× Cinnamaldehyde was added to the cell plates. During the compound addition as well as agonist addition, fluorescence readings were taken simultaneously from all 384 wells of the cell plate every 1.5 seconds. Five readings were taken to establish a stable baseline, then 20 ul of sample was rapidly (30 ul/sec) and simultaneously added to each well of the cell plate. The fluorescence was continuously monitored before, during and after sample/agonist addition for a total elapsed time of 100 seconds (compound addition) and 120 seconds (agonist addition). Responses (increase in peak fluorescence) in each well following agonist addition was determined. The initial fluorescence reading from each well, prior to ligand stimulation, was used a zero baseline value for the data from that well.

Sequence of hTRPA1 (O75762 whole entry): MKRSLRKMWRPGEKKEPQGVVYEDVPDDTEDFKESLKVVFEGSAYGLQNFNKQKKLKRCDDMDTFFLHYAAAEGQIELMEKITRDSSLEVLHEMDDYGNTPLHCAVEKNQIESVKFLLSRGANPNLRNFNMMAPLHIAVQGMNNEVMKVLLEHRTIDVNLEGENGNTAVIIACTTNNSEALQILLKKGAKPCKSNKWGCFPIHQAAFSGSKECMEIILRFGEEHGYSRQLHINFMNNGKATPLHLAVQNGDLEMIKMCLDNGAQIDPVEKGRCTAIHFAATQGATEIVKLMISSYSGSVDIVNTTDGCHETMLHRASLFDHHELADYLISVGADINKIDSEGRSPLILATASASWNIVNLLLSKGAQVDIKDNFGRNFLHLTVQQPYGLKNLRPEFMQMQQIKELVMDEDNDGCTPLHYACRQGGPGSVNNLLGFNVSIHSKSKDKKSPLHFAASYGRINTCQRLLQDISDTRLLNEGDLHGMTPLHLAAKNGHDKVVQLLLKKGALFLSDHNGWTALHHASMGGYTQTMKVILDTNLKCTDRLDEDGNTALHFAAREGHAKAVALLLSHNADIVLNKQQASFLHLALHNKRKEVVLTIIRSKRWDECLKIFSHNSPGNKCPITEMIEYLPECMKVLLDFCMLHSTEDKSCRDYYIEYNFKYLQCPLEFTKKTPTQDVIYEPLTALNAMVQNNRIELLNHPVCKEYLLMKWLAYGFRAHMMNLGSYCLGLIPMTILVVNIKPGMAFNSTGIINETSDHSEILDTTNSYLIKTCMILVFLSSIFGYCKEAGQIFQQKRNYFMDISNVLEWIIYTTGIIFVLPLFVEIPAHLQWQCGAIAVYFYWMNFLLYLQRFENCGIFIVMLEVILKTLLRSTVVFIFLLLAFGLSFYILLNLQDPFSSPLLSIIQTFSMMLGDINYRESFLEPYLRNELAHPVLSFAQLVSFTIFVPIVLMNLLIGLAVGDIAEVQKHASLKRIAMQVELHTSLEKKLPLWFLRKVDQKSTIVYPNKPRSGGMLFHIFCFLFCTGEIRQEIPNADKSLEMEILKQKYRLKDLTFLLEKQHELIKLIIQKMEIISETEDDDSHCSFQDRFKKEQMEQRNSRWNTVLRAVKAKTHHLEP

SMILES | IC50
COC[C@@H](C(=O)NCc1cccc(-c2ccc(C(F)(F)F)cc2)c1)N(C)S(=O)(=O)c1ccc(F)cc1 [Example 52, (S)-2-[(4-Fluoro-benzenesulfonyl)-methyl-amino]-3-methoxy-N-(4′-trifluoromethyl-biphenyl-3-ylmethyl)-propionamide] | 98 nM
O=C(CN(CC1COC1)S(=O)(=O)c1ccc(F)cc1)NCc1cccc(-c2ccc(C(F)(F)F)cc2)c1 [Example 54, 2-[(4-Fluoro-benzenesulfonyl)-oxetan-3-ylmethyl-amino]-N-(4′-trifluoron-3-ylmethyl-amino]-N-(4′-trifluoromethyl-biphenyl-3-ylmethyl)-acetamide] | 1760 nM
CC(C)N(CC(=O)NCc1cc(-c2ccc(C(F)(F)F)nc2)ccn1)S(=O)(=O)c1ccc(F)cc1 [Example 55, 2-[(4-Fluoro-benzenesulfonyl)-isopropyl-amino]-N-(6-trifluoromethyl-[3,4′]bipyridinyl-2′-ylmethyl)-acetamide] | 130 nM
CC(C)N(CC(=O)NCc1cc(-c2ccc(C(F)(F)F)cc2)ncn1)S(=O)(=O)c1cccnc1 [Example 56, 2-[Isopropyl-(pyridine-3-sulfonyl)-amino]-N-[6-(4-trifluoromethyl-phenyl)-pyrimidin-4-ylmethyl]-acetamide] | 550 nM
CC(C)N(CC(=O)NCc1ccnc(-c2ccc(C(F)(F)F)nc2)c1)S(=O)(=O)c1ccc(F)cc1 [Example 58, 2-[(4-Fluoro-benzenesulfonyl)-isopropyl-amino]-N-(6′-trifluoromethyl-[2,3′]bipyridinyl-4-ylmethyl)-acetamide] | 230 nM
O=C(CN(C1COC1)S(=O)(=O)c1ccc(F)cc1)NCc1cccc(-c2ccc(C(F)(F)F)cc2)c1 [Example 60, 2-[(4-Fluoro-benzenesulfonyl)-oxetan-3-yl-amino]-N-(4′-trifluoromethyl-biphenyl-3-ylmethyl)-acetamide] | 200 nM
CC(C)N(CC(=O)NCc1cc(-c2ccc(C(F)(F)F)nc2)ncn1)S(=O)(=O)c1ccc(F)cc1 [Example 61, 2-[(4-Fluoro-benzenesulfonyl)-isopropyl-amino]-N-[6-(6-trifluoromethyl-pyridin-3-yl)-pyrimidin-4-ylmethyl]-acetamide] | 140 nM
CC(C)N(CC(=O)NCc1cc(F)cc(-c2ccc(C(F)(F)F)nc2)c1)S(=O)(=O)c1ccc(F)cc1 [Example 63, 2-[(4-Fluoro-benzenesulfonyl)-isopropyl-amino]-N-[3-fluoro-5-(6-trifluoromethyl-pyridin-3-yl)-benzyl]-acetamide] | 38 nM
CC(C)N(CC(=O)NCc1cc(-c2ccc(C(F)(F)F)cc2)ncn1)S(=O)(=O)c1ccccc1C#N [Example 65, 2-[(2-Cyano-benzenesulfonyl)-isopropyl-amino]-N-[6-(4-trifluoromethyl-phenyl)-pyrimidin-4-ylmethyl]-acetamide] | 3860 nM
CC(C)N(CC(=O)NCc1cccc(-c2cnc(C(F)(F)F)cn2)c1)S(=O)(=O)c1ccc(F)cc1 [Example 71, 2-[(4-Fluoro-benzenesulfonyl)-isopropyl-amino]-N-[3-(5-trifluoromethyl-pyrazin-2-yl)-benzyl]-acetamide] | 79 nM
CC(C)N(CC(=O)NCc1cccc(-c2ccc(C(F)(F)F)nn2)c1)S(=O)(=O)c1ccc(Cl)nc1 [Example 73, 2-[(6-Chloro-pyridine-3-sulfonyl)-isopropyl-amino]-N-[3-(6-trifluoromethyl-pyridazin-3-yl)-benzyl]-acetamide] | 682 nM
CC(C)N(CC(=O)NCc1ccnc(-c2cnc(C(F)(F)F)nc2)c1)S(=O)(=O)c1ccc(F)cc1 [Example 74, 2-[(4-Fluoro-benzenesulfonyl)-isopropyl-amino]-N-[2-(2-trifluoromethyl-pyrimidin-5-yl)-pyridin-4-ylmethyl]-acetamide] | 298 nM

More lines, in order of falling IC50, values ahead:

IC50 | SMILES
380 nM | CC(C)N(CC(=O)NCc1cc(-c2ccc(C(F)(F)F)cc2)ncn1)S(=O)(=O)c1cnccn1 [Example 67, 2-[Isopropyl-(pyrazine-2-sulfonyl)-amino]-N-[6-(4-trifluoromethyl-phenyl)-pyrimidin-4-ylmethyl]-acetamide]
233 nM | CC(C)N(CC(=O)NCc1cccc(-c2cnc(C(F)(F)F)cn2)c1)S(=O)(=O)c1ccc(Cl)nc1 [Example 72, 2-[(6-Chloro-pyridine-3-sulfonyl)-isopropyl-amino]-N-[3-(5-trifluoromethyl-pyrazin-2-yl)-benzyl]-acetamide]
180 nM | CC(C)N(CC(=O)NCc1cncc(-c2ccc(C(F)(F)F)cc2)c1)S(=O)(=O)c1ccc(F)cc1 [Example 57, 2-[(4-Fluoro-benzenesulfonyl)-isopropyl-amino]-N-[5-(4-trifluoromethyl-phenyl)-pyridin-3-ylmethyl]-acetamide]
170 nM | CC(C)N(CC(=O)NCc1cccc(-c2ccc(C(F)(F)F)nn2)c1)S(=O)(=O)c1ccc(F)cc1 [Example 66, 2-[(4-Fluoro-benzenesulfonyl)-isopropyl-amino]-N-[3-(6-trifluoromethyl-pyridazin-3-yl)-benzyl]-acetamide]
130 nM | CN(C(CO)C(=O)NCc1cccc(-c2ccc(C(F)(F)F)cc2)c1)S(=O)(=O)c1ccc(F)cc1 (stereo not drawn) [Example 51, 2-[(4-Fluoro-benzenesulfonyl)-methyl-amino]-3-hydroxy-N-(4′-trifluoromethyl-biphenyl-3-ylmethyl)-propionamide]
99 nM | CC(C)N(CC(=O)NCc1ccnc(-c2ccc(C(F)(F)F)cc2)c1)S(=O)(=O)c1cccc(F)c1 [Example 59, 2-[(3-Fluoro-benzenesulfonyl)-isopropyl-amino]-N-[2-(4-trifluoromethyl-phenyl)-pyridin-4-ylmethyl]-acetamide]
83 nM | CC(C)N(CC(=O)NCc1cc(-c2ccc(C(F)(F)F)cc2)ncn1)S(=O)(=O)c1ccc(Cl)nc1 [Example 64, 2-[(6-Chloro-pyridine-3-sulfonyl)-isopropyl-amino]-N-[6-(4-trifluoromethyl-phenyl)-pyrimidin-4-ylmethyl]-acetamide]
79 nM | CC(C)N(CC(=O)NCc1cccc(-c2ccc(C(F)(F)F)cn2)c1)S(=O)(=O)c1cccc(F)c1 [Example 50, 2-[(3-Fluoro-benzenesulfonyl)-isopropyl-amino]-N-[3-(5-trifluoromethyl-pyridin-2-yl)-benzyl]-acetamide]
48 nM | CC(C)N(CC(=O)NCc1ccc(F)c(-c2cnc(C(F)(F)F)nc2)c1)S(=O)(=O)c1ccc(F)cc1 [Example 70, 2-[(4-Fluoro-benzenesulfonyl)-isopropyl-amino]-N-[4-fluoro-3-(2-trifluoromethyl-pyrimidin-5-yl)-benzyl]-acetamide]
47 nM | CC(C)N(CC(=O)NCc1cccc(-c2cnc(C(F)(F)F)nc2)c1)S(=O)(=O)c1ccc(F)cc1 [Example 68, 2-[(4-Fluoro-benzenesulfonyl)-isopropyl-amino]-N-[3-(2-trifluoromethyl-pyrimidin-5-yl)-benzyl]-acetamide]
25 nM | CC(C)N(CC(=O)NCc1cc(-c2ccc(C(F)(F)F)cc2)ncn1)S(=O)(=O)c1ccc(Cl)s1 [Example 75, 2-[(5-Chloro-thiophene-2-sulfonyl)-isopropyl-amino]-N-[6-(4-trifluoromethyl-phenyl)-pyrimidin-4-ylmethyl]-acetamide]
19 nM | CC(C)N(CC(=O)NCc1cc(-c2ccc(C(F)(F)F)cc2)ncn1)S(=O)(=O)c1ccc(F)c(F)c1 [Example 69, 2-[(3,4-Difluoro-benzenesulfonyl)-isopropyl-amino]-N-[6-(4-trifluoromethyl-phenyl)-pyrimidin-4-ylmethyl]-acetamide]
